Test results from patent EP0250134B1, “Method for combating swine dysentery” (IMCERA Group Inc., priority 1986, dated 1987).

Tested on: Treponema hyodysenteriae induced swine dysentery
Test: Treponema hyodysenteriae induced swine dysentery, lysocellin in feed, 51-day trial, challenge on study day 22
Format: in vivo
Conditions: for Daily feed / Daily gain / Feed/Gain: infected pigs
Excerpt: One hundred twenty (120) cross-bred barrows and gilts were used in a randomized complete blocks design to evaluate the effect of lysocellin on Treponema hyodysenteriae induced swine dysentery. The swine were divided into 4 groups: (1) non-infected, non-medicated controls, (2) infected non-medicated controls, (3) infected, medicated at 98.43 grams lysocellin/t (100 g/T), and (4) infected, medicated at 196.85 grams lysocellin/t (200 g/T). All were observed through a 51-day trial period. Swine in groups (2)-(4) were challenged with Treponema hyodysenteriae on study day 22 and the post-challenge period data were analyzed for significant differences. A description of the experimental design is summarized as follows:
Comparisons were made on treatment 1 vs. treatments 3 and 4, treatment 2 vs. treatment 3 and 4, and treatment 3 vs. treatment 4. The following observations were made based upon data analyzed: postchallenge performance of swine with respect to daily gain and daily feed gain, number of pigs per pen expressing clinical signs of dysentery during the postchallenge period, number of pig days per pen with clinical signs of dysentery during the postchallenge period, and number of pig days per pen with specified fecal score.
Referring to table 3 and table 4, clinical signs of dysentery observed during the postchallenge period are presented as treatment means of: number of pigs per pen expressing the sign and number of pig days the sign was observed within a pen. The value "pig days" was based on 28 days/pig surviving to the end of the trial or number of days a pig survived during the postchallenge period (for example, 5 pigs/pen on trial for 28 days equals 140 pig days). Removal of pigs from a pen during the trial was taken into account in these calculations.

[1] = 196.85 g/t (200 g/T) lysocellin, mean (lower, higher 95% confidence limits), 5 pigs/pen for 28 days = 140 pig days
[2] = postchallenge period 0-7 days, 98.43 g/t (100 g/T) lysocellin
[3] = postchallenge period 0-7 days, 196.85 g/t (200 g/T) lysocellin
[4] = postchallenge period 0-14 days, 98.43 g/t (100 g/T) lysocellin
[5] = postchallenge period 0-14 days, 196.85 g/t (200 g/T) lysocellin
[6] = postchallenge period 0-21 days, 98.43 g/t (100 g/T) lysocellin
[7] = postchallenge period 0-21 days, 196.85 g/t (200 g/T) lysocellin
[8] = postchallenge period 0-28 days, 98.43 g/t (100 g/T) lysocellin
[9] = postchallenge period 0-28 days, 196.85 g/t (200 g/T) lysocellin

lysocellin was tested, and the “Number of Pig Days per Pen with Clinical Signs of Dysentery During the Postchallenge Period: Depressed” value [1] was 0.38 (-0.21,1.29), the “Number of Pig Days per Pen with Clinical Signs of Dysentery During the Postchallenge Period: Gauntness” value [1] was 11.17 (5.73,18.30) and the “Number of Pig Days per Pen with Clinical Signs of Dysentery During the Postchallenge Period: Lethargic” value [1] was 1.82 (0.07,4.74). For the same substance, the “Number of Pig Days per Pen with Clinical Signs of Dysentery During the Postchallenge Period: Reddened skin” value [1] was 1.29 (-0.02,3.41), the “Number of Pig Days per Pen with Clinical Signs of Dysentery During the Postchallenge Period: Rough hair coat” value [1] was 9.55 (2.33,21.19) and the “Number of Pig Days per Pen with Clinical Signs of Dysentery During the Postchallenge Period: Weak” value [1] was 0.13 (-0.35,0.94). The mortality (infected pigs fed lysocellin) was “prevented mortality”, the “anorexia (clinical sign)” value (infected pigs receiving either level of lysocellin, postchallenge period) was “No pigs receiving lysocellin appeared anorexic” and the feed efficiency (pigs receiving lysocellin (either level) vs infected control pigs) was “superior (P<.05)”. The “cumulative average daily gain” value (pigs receiving lysocellin (either level) vs infected nonmedicated pigs, each period (7, 14, 21 and 28 days)) was “improved (P<.05) over that of nonmedicated pigs”, the “fecal condition (number of pen pig days with a specified fecal condition)” value (pigs receiving lysocellin vs infected non-medicated control pigs, postchallenge period (Table 5, not given)) was “Infected non-medicated control pigs had significantly fewer (P<.05) days of normal feces and more (P<.05) days of water or bloody diarrhea than pigs receiving lysocellin” and the Daily feed [2] was 1.06 kg/day. For the same substance, the Daily gain [2] was 0.35 kg/day, the Feed/Gain [2] was 3.21 and the Daily feed [3] was 0.94 kg/day. It also gave a Daily gain [3] of 0.41 kg/day, a Feed/Gain [3] of 2.30 and a Daily feed [4] of 0.90 kg/day. It also gave a Daily gain [4] of 0.22 kg/day, a Feed/Gain [4] of 4.61 and a Daily feed [5] of 1.03 kg/day. The Daily gain [5] was 0.35 kg/day, the Feed/Gain [5] was 2.99 and the Daily feed [6] was 0.89 kg/day. It also gave a Daily gain [6] of 0.28 kg/day, a Feed/Gain [6] of 3.38 and a Daily feed [7] of 1.07 kg/day. The Daily gain [7] was 0.42 kg/day, the Feed/Gain [7] was 2.55 and the Daily feed [8] was 0.99 kg/day. The Daily gain [8] was 0.33 kg/day, the Feed/Gain [8] was 3.01 and the Daily feed [9] was 1.15 kg/day. It also gave a Daily gain [9] of 0.45 kg/day and a Feed/Gain [9] of 2.55.
